Measured values taken from US7446201B2, “Substituted heteroaryl benzofuran acids” (Wyeth, priority 2003, dated 2008).
Structures can show the parent of a compound that is named as a salt.

What was measured:
[1] = target: T1, recombinant human plasminogen activator inhibitor-1 (PAI-1) (Homo sapiens, UniProt P05121); assay: Primary Screen for the PAI-1 Inhibition; format: biochemical; details: for IC50: footnote b: determined by a modification of the Primary Screen for PAI-1 Inhibition; for inhibition at 25 µM: 25 μM test compound
T1 construct: purchased Molecular Innovations, Royal Oak, Mich
Procedure: Test compounds are dissolved in DMSO at a final concentration of 10 mM, then diluted 100× in physiologic buffer. The inhibitory assay is initiated by the addition of the test compound (1-100 μM final concentration, maximum DMSO concentration of 0.2%) in a pH 6.6 buffer containing 140 nM recombinant human plasminogen activator inhibitor-1 (PAI-1; Molecular Innovations, Royal Oak, Mich.). Following a 1 hour incubation at room temperature, 70 nM of recombinant human tissue plasminogen activator (tPA) is added, and the combination of the test compound, PAI-1 and tPA is incubated for an additional 30 minutes. Following the second incubation, Spectrozyme-tPA (American Diagnostica, Greenwich, Conn.), a chromogenic substrate for tPA, is added and absorbance read at 405 nm at 0 and 60 minutes. Relative PAI-1 inhibition is equal to the residual tPA activity in the presence of the test compound and PAI-1. Control treatments include the complete inhibition of tPA by PAI-1 at the molar ratio employed (2:1), and the absence of any effect of the test compound on tPA alone.

[2] = target: human PAI-1 (Homo sapiens, UniProt P05121); assay: Assay for Determining IC50 of Inhibition of PAI-1 (Antibody Assay); format: binding; details: footnote a: determined by the Antibody Assay
Procedure: This assay is based upon the non-SDS dissociable interaction between tPA and active PAI-1. Assay plates are initially coated with human tPA (10 μg/ml). Test compounds are dissolved in DMSO at 10 mM, then diluted with physiologic buffer (pH 7.5) to a final concentration of 1-50 μM. Test compounds are incubated with human PAI-1 (50 ng/ml) for 15 minutes at room temperature. The tPA-coated plate is washed with a solution of 0.05% Tween 20 and 0.1% BSA, then the plate is blocked with a solution of 3% BSA. An aliquot of the test compound/PAI-1 solution is then added to the tPA-coated plate, incubated at room temperature for 1 hour, and washed. Active PAI-1 bound to the plate is assessed by adding an aliquot of a 1:1000 dilution of the 33B8 monoclonal antibody against human PAI-1, and incubating the plate at room temperature for 1 hour (Molecular Innovations, Royal Oak, Mich.). […] The plate is incubated 45 minutes at room temperature, and color development is determined at OD405 nm. The quantitation of active PAI-1 bound to tPA at varying concentrations of test compound is used to determine the IC50. Results are analyzed using a logarithmic best-fit equation. The assay sensitivity is 5 ng/ml of human PAI-1 as determined from a standard curve ranging from 0-100 ng/ml.

T1 sequence (P05121 24-402): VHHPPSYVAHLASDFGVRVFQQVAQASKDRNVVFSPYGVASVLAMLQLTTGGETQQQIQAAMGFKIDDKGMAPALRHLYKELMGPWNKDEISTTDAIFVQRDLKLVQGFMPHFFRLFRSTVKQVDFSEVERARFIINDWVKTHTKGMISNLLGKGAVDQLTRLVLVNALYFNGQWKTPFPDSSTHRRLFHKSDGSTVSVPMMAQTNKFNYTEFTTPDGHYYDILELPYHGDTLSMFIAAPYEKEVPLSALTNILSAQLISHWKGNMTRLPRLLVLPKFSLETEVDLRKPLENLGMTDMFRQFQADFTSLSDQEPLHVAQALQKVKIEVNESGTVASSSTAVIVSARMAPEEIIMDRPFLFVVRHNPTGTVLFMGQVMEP
human PAI-1, sequence (P05121 24-402): as above

melting point	Structure (SMILES)	also measured
> 273 °C (dec.)	c1ccc(-c2c(-c3ccc(OCc4nnn[nH]4)c4ncccc34)oc3ccccc23)cc1 (as salt: salt) [Compound 4, 5-(3-Phenyl-1-benzofuran-2-yl)-8-quinolinyl 1H-tetraazol-5-ylmethyl ether]	–
226 to 228 °C (dec.)	CCCCCc1c(-c2ccc(OCc3nnn[nH]3)c3ncccc23)oc2ccccc12 (as salt: salt) [Compound 5, 5-(3-Pentyl-1-benzofuran-2-yl)-8-(1H-tetraazol-5-ylmethoxy)quinoline]	–

The remaining lines, values behind:

Structure (SMILES)	melting point	also measured
c1ccc2oc(-c3ccc(OCc4nnn[nH]4)c4ncccc34)cc2c1 (as salt: salt) [Compound 3, 5-(1-Benzofuran-2-yl)-8-(1H-tetraazol-5-ylmethoxy)quinoline]	> 240 °C (dec.)	–
FC(F)(F)c1cc(OCc2nnn[nH]2)c2cc(-c3cc4ccccc4o3)ccc2n1 [Compound 1, 6-(1-Benzofuran-2-yl)-2-(trifluoromethyl)quinolin-4-yl 1H-tetraazol-5-ylmethyl ether]	> 225 °C (dec.)	IC50 [1]: 38.6 µM
CCCCCc1c(-c2ccc3nc(C(F)(F)F)cc(OCc4nnn[nH]4)c3c2)oc2ccccc12 [Compound 2, 6-(3-Pentyl-1-benzofuran-2-yl)-4-(1H-tetraazol-5-ylmethoxy)-2-(trifluoromethyl)-quinoline]	207 to 209 °C (dec.)	IC50 [2]: 21.5 µM
c1ccc2oc(-c3ccc(OCc4nnn[nH]4)c4ncccc34)cc2c1 [Compound 3, 5-(1-Benzofuran-2-yl)-8-(1H-tetraazol-5-ylmethoxy)quinoline]	–	inhibition at 25 µM [1]: 20%
c1ccc(-c2c(-c3ccc(OCc4nnn[nH]4)c4ncccc34)oc3ccccc23)cc1 [Compound 4, 5-(3-Phenyl-1-benzofuran-2-yl)-8-quinolinyl 1H-tetraazol-5-ylmethyl ether]	–	inhibition at 25 µM [1]: 55%
CCCCCc1c(-c2ccc(OCc3nnn[nH]3)c3ncccc23)oc2ccccc12 [Compound 5, 5-(3-Pentyl-1-benzofuran-2-yl)-8-(1H-tetraazol-5-ylmethoxy)quinoline]	–	IC50 [1]: 8.1 µM
